The METLIN SMRT retention time set (Domingo-Almenara et al. 2019)

Test: gradient 5% acetonitrile 3 min, to 50% in 2 min, to 85% in 15 min, held 3 min, 100 µL/min
Settings: column: Zorbax Extend-C18 2.1 x 50 mm; eluents: water / acetonitrile, 0.1% formic acid
Method in brief: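 Pure standards were analyzed in mixtures of ~100 molecules using HPLC coupled to a quadrupole time-of-flight mass spectrometer, in both positive and negative ionization mode. Separation used a Zorbax Extend-C18 column (2.1 × 50 mm, 1.8 μm) at 100 μL/min, with water and acetonitrile each containing 0.1% formic acid. Dead and dwell volumes were 40 μL and 900 μL, and data were collected over 3 months. Retention time was read from computationally picked adduct peaks, each inspected manually.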

Compound | RP-LC retention time [s]
COC(=O)C(C)NC(=O)N1CCCN(C2=NS(=O)(=O)C(c3ccccc3)=C2C)CC1 (stereo unspecified) | 715
CC(C)c1cc(C(=O)Nc2ccc(Cl)cc2F)no1 | 1140
Cc1cn(C)c(CC(=O)Nc2ccc(Cl)cc2)c1C(=O)O | 804
COC(=O)c1cnc2nc(C)ccc2c1Nc1ccc(C)c(Cl)c1 | 733
O=C(CN1CCC2(CC1)NC(=O)c1ccccc1N2)Nc1ccc(Cl)cc1 | 637
Cn1cc(S(=O)(=O)N2CCC(C(=O)N3CCCCCC3)CC2)cc1C(=O)N1CCCC1 | 732
O=C(NCCc1ccccc1)N1CCCn2nc(-c3ccncc3)cc2C1 | 583
O=S(=O)(c1ccccc1)c1[nH]c(-c2ccccc2)nc1SCc1ccncc1 | 651
CSc1ccc(-c2nc3cnccn3c2Nc2ccc(F)cc2)cc1 | 927
NC(=O)c1cc(-c2ccccc2)sc1NC(=O)c1ccc([N+](=O)[O-])o1 | 883
CCn1cccc1-c1nc(C)c(C(=O)Nc2ccc(C(C)C)cc2)s1 | 1310
CC(=O)NCc1ccc(-c2noc(-c3cc(F)ccc3Cl)n2)s1 | 879
CCN1C(=O)COc2cc(-c3noc(C(=O)NCCc4ccc(S(N)(=O)=O)cc4)n3)ccc21 | 732
O=C(Nc1cccc([N+](=O)[O-])c1)C(=O)N1CCN(c2cccc(Cl)c2)CC1 | 950
Cc1ncnc2c1CCC(=O)N2CC1CCCCC1 | 848
COc1ccc(Cl)c2c(=O)c3c([nH]c12)CCN(CC(=O)Nc1cccc(C)c1)C3 | 627
O=C(Nc1ccccc1Cl)NC1CCCN(c2cc(-c3ccncc3)[nH]n2)C1 (stereo unspecified) | 582
CNC(=O)C1CCCN(C(=O)Nc2ccc(NC(=O)Nc3ccc(C)c(C)c3)cc2)C1 (stereo unspecified) | 722
Cc1cccc(C)c1-n1ccn(Cc2nc(-c3ccc(F)cc3)no2)c(=O)c1=O | 884
Cc1nnc(C2CCCN(C(=O)CCc3c(C)noc3C)C2)s1 (stereo unspecified) | 606
CCOC(=O)c1ccccc1NC(=O)Cn1cnc2nc(N3CCCC(C(=O)NC)C3)sc2c1=O (stereo unspecified) | 640

Compound | RP-LC retention time [s]
O=C(Cc1ccc(NS(=O)(=O)c2ccc3c(c2)OCCO3)cc1)NC1CC1 | 678
COc1cccc(CNC(=O)C2CCCN(C(=O)C3Sc4ccccc4NC3=O)C2)c1 (stereo unspecified) | 737
O=C(Nc1ccccc1Br)N1CCC(n2cnc3cccnc32)CC1 | 670
Cc1ccc(S(=O)(=O)N(C)c2ccc(OCC(=O)N3CCOCC3)cc2)cc1 | 732
Cc1ccc(S(=O)(=O)N2CCc3nn(CC(C)C)c(=O)n3CC2)cc1Cl | 880
Cc1cccc(N2CCN(Cc3nc(-c4ccc(N5CCCC5)nc4)no3)CC2)c1C | 787
COc1ccc2c(c1)C1(CCN(S(=O)(=O)c3cc(OC)ccc3OC)C1)C(=O)N2C (stereo unspecified) | 879
CC(C)NC(=O)c1ccc(OCC2CCN(C(=O)Cc3cccc(F)c3)CC2)cc1 | 845
O=C(NCc1ccnc(N2CCSCC2)c1)Nc1ccc(F)c(Cl)c1 | 673
CCC(=O)N1CCc2cc(N3CC(C(=O)NCc4ccccc4Cl)CC3=O)ccc21 (stereo unspecified) | 744
CCOC(=O)c1c(S(=O)(=O)NCc2ccccc2F)n[nH]c1C | 728
Cc1sc(NC(=O)c2cccnc2)nc1-c1ccc2c(c1)NC(=O)C(C)O2 (stereo unspecified) | 718
O=C(Cn1ccc2ccc(N3CCOCC3)nc21)N1CCN(c2ccccn2)CC1 | 616
CN(C)c1ccc(C(=O)NCC(=O)Nc2nc3ccccc3[nH]2)cc1 | 625
CCN1CCn2cc(S(=O)(=O)Nc3ccc(OC)cc3)cc2C1=O | 684
O=C(c1cnn(-c2ccccc2)c1-n1cccc1)N1CCN(c2ccccn2)CC1 | 623
Cc1ccc(N2CCN(S(=O)(=O)c3cc(-c4nnc(C5CCC5)o4)co3)CC2)cc1 | 1110
Cc1ccc(CNC(=O)C2(C)CCCN(C(=O)c3cccc(Br)c3)C2)cc1 (stereo unspecified) | 960
CCc1noc(-c2ccc(SCC(=O)N3CCCCC3)nc2)n1 | 875
Cc1ccn2cc(-c3ccc(NC(=O)c4ccc(C(C)(C)C)cc4)cc3)nc2n1 | 803
COc1cc(CNC(=O)c2c(N3CCCC3=O)c3cc(F)ccc3n2C)cc(OC)c1OC | 791

Compound | RP-LC retention time [s]
O=C(CN1C(=O)C2CCCCN2c2ccc(S(=O)(=O)N3CCCC3)cc21)NC1CCCCCC1 (stereo unspecified) | 1000
CCCNC(=O)NC1CCN(c2nc3cccnc3n(Cc3ccc(C)cc3)c2=O)CC1 | 1010
COc1ccc(S(=O)(=O)N2C[C@@H](F)C[C@H]2C(=O)N2CCCCC2)cc1 | 762
O=C(NCC1CC1)c1cn(C2CN(C(=O)Nc3ccc4c(c3)OCCO4)C2)nn1 | 685
CCN1c2ccc(C)cc2C(=O)NC12CCN(C(=O)c1ccc(Cl)cc1)CC2 | 858
Cn1ncc2c3ccccc3n(CC(=O)NCCCN3CCCCC3)c2c1=O | 580
CCOC(=O)c1c(N2CCOCC2)nc2ccc([N+](=O)[O-])cc2c1-c1ccccc1 | 1110
O=C(CCC1CCN(c2cc(NC3CC3)ncn2)CC1)NCc1cnccn1 | 564
Cc1cccc(-c2noc(CCn3nc(-c4ccccc4)ccc3=O)n2)c1 | 1020
O=C(CCC(=O)N1CCN(c2nc3cccnc3s2)CC1)N1CCCC1 | 612
CC(=O)c1cccc(NS(=O)(=O)c2ccc(F)c(Cl)c2)c1 | 839
CC1(CNC(=O)COc2ccc(F)cc2)CCOCC1 | 750
CCn1cc(S(=O)(=O)N2CCO[C@@H](COc3ccccn3)[C@@H]2c2ccccc2)cn1 | 898
COc1cccc(N2C=C(C(=O)N3CCCC3)S(=O)(=O)c3ccccc32)c1 | 770
CC(C)NC(=O)c1ccc2c(c1)CCN2C(=O)C1CCC1 | 764
Cc1oc(-c2ccc(NC(=O)C3CCCC3)cc2)nc1Cn1cccn1 | 859
CCCNC(=O)N1CCN(c2nc(CC(C)C)c3c(c2C#N)CC(C)(C)OC3)CC1 | 1090
O=C(Cc1ccsc1)N1CCN(c2ncnc3c2CCC3)CC1 | 594
COc1ccc(Cn2nnc(C(=O)O)c2C)cc1F | 645

The next lines start with the values.

RP-LC retention time [s] | Compound
756 | Cc1ccc(NC(=O)Cc2nnc(-c3cnccn3)o2)cc1Cl
665 | COc1ccc2c(ccn2CC(=O)N[C@@H](C)C(=O)O)c1
801 | CCc1noc(-c2ccnc(-n3cnc(C(=O)NCC4CC4)c3)c2)n1
1090 | COc1cccc(-c2nnc(Cc3nc(-c4cccc(Br)c4)no3)o2)c1
686 | COc1ccc(-c2cn3c(CC(=O)NCc4ccc(C)o4)csc3n2)cc1OC
817 | COc1ccc(C(=O)N2CCCC2c2nc(-c3ccc(OC)c(OC)c3)no2)cc1OC (stereo unspecified)
736 | Cc1ccccc1NC(=O)NCCn1c(C(F)(F)F)nc2cccnc21
731 | COCc1nc(CCNS(=O)(=O)c2ccc(OC)cc2)no1
657 | O=C(O)c1nnn(-c2ccccc2)c1-c1ccccn1
806 | Cc1ccsc1C(=O)NCCn1c(=O)n(Cc2ccccc2)c2cccnc21
1290 | Cc1ccccc1Oc1nccnc1N1CCCC(C(=O)NCc2cccc(Br)c2)C1 (stereo unspecified)
889 | O=C(NCc1ccc2c(c1)OCO2)c1c(O)c2cccnc2[nH]c1=O
569 | CC(C)Oc1ccccc1CN1C[C@@H](CO)[C@H](c2ccncc2)C1
597 | COc1ccc(OC)c(N2CC(c3nc4ccccc4n3CCN3CCOCC3)CC2=O)c1 (stereo unspecified)
1000 | CCOc1ccc(-c2ccc(=O)n(CCc3nc(-c4ccccc4)no3)n2)cc1
752 | COc1cccc(-c2noc(NC3CC3)n2)c1OC
1050 | Cc1ccc(CC(=O)Nc2cc(-c3ccc(C)s3)no2)cc1
750 | O=C(CCCc1ccccc1)NCC1CN(c2ccc3c(c2)OCO3)C(=O)O1 (stereo unspecified)
760 | CCC(=O)Nc1ccc(-n2cnc(C(=O)NCc3ccc(F)c(Cl)c3)c2)nc1
560 | CCc1nc(NCc2cccnc2)ncc1C(=O)O
696 | COc1ccc(CNC(=O)Cc2nnc(-c3ccccn3)o2)c(OC)c1
637 | COCCN1C(=O)Cc2ccccc2C1C(=O)NCc1ccc(C)o1 (stereo unspecified)
900 | COc1ccc(OCc2nn3c(-c4ccoc4C)nnc3s2)cc1
724 | COc1ccccc1NC(=O)N1CCN(c2ccc(-c3noc(C)n3)cn2)CC1
927 | COc1cccc(NC(=O)c2sc(-c3cn(C)c4ncccc34)nc2C)c1
852 | Cn1nc(CNC(=O)c2ccc(Cl)cc2)c2ccccc21
875 | CCCN(Cc1cccs1)C(=O)Nc1cc(OC)c(OC)c(OC)c1
956 | Cc1cc(NC(=O)c2sc(NCc3ccco3)nc2C)ccc1Cl
746 | CCc1nc(OCC(=O)NCc2ccc(OC)cc2)c2ccccc2n1
654 | CCc1nc(-c2csc(S(=O)(=O)N3CCC(C(=O)NCc4ccccn4)CC3)c2)no1
